Reference: patent publication US8119568B2, “3-amino-1,2-benzisothiazole compounds for combating animal pest II” (BASF SE, priority 2007, dated 2012)

Experiments:
[1] = test system: Green Peach Aphid (Myzus persicae); test: Green peach aphid (Myzus persicae) test, infested bell pepper leaves dipped in test solution; format: in vivo; conditions: 120 h, determined after 5 days, read-out: mortality of green peach aphid in comparison with untreated controls
Experimental: (§1) If not otherwise described, the active compounds were formulated in a mixture of 50 vol.-% acetone:50 vol.-% water. A nonionic surfactant (Kinetic®) was included in the solution at a volume of 0.01% v/v.
(§2) In the following tests, the formulated solutions of the active compounds were diluted to an active ingredient concentration of 300 ppm and the diluted solutions were applied in the below mentioned tests.
Bell pepper plants at the first true-leaf stage were infested prior to treatment by placing heavily infested leaves from the main aphid colony on top of the treatment plants. The aphids were allowed to transfer overnight to accomplish an infestation of 30-40 aphids per plant and the host leaves were removed. The infested leaves of the test plants were then dipped and agitated in the test solution for 3 seconds and allowed to dry in a fume hood. Test plants were maintained under fluorescent lighting in a 24-hr photoperiod at 25° C. and 20-40% relative humidity. Mortality on the treated plants, relative to mortality on untreated check plants, was determined after 5 days.

[2] = test system: Cowpea Aphid (aphis craccivora); test: Cowpea aphid (aphis craccivora) test, colonized potted cowpea plants sprayed; format: in vivo; conditions: assessed after 24, 72, and 120 hours, read-out: mortality in comparison with untreated controls (cowpea aphid)
Experimental: as §2
The active compound is dissolved at the desired concentration in a mixture of 1:1 (vol:vol) distilled water:acetone. The test solution is prepared at the day of use.
Potted cowpea plants colonized with approximately 100-150 aphids of various stages were sprayed after the pest population has been recorded. Population reduction was assessed after 24, 72, and 120 hours.

[3] = test system: Cotton Aphid (Aphis gossypii); test: Cotton aphid (Aphis gossypii) test, infested cotton cotyledons dipped in test solution; format: in vivo; conditions: 120 h, determined after 5 days, read-out: mortality of cotton aphid (Aphis gossypii, mixed life stages) in comparison with untreated controls
Experimental: as §1, §2
Cotton plants at the cotyledon stage were infested prior to treatment by placing a heavily infested leaf from the main aphid colony on top of each cotyledon. The aphids were allowed to transfer overnight and the host leaf was removed. The infested cotyledons were then dipped and agitated in the test solution for 3 seconds and allowed to dry in a fume hood. Test plants were maintained under fluorescent lighting in a 24-hr photoperiod at 25° C. and 20-40% relative humidity. Aphid mortality on the treated plants, relative to mortality on untreated check plants, was determined after 5 days.

[4] = test system: Southern Armyworm (Spodoptera eridania), 2nd Instar Larvae; test: Southern armyworm (Spodoptera eridania) test, Sieva lima bean leaves dipped; format: in vivo; conditions: 96 h, 2nd instar larvae on dipped lima bean leaves, at 4 days, read-out: mortality in comparison with untreated controls (southern armyworm)
Experimental: as §2
The active compounds were formulated in 50:50 acetone:water (vol) and 100 ppm Kinetica™ surfactant.
A pair of first true leaves of Sieva lima bean was dipped into the test solution and allowed to dry. The leaves were then placed in a plastic perforated zip enclosure bag and ten 2nd instar larvae were added. At 4 days, observations were made of mortality and reduced feeding.

[5] = test system: Diamond Back Moth (plutella xylostella); test: Diamond back moth (plutella xylostella) test, Chinese cabbage leaves dipped; format: in vivo; conditions: 3rd instar larvae on dipped cabbage leaves, recorded 24, 72, and 120 hours after treatment, read-out: mortality in comparison with untreated controls (diamond back moth)
Experimental: as §2
The active compound is dissolved at the desired concentration in a mixture of 1:1 (vol:vol) distilled water:acteon. The test solution is prepared at the day of use.
Leaves of Chinese cabbage were dipped in test solution and air-dried. Treated cabbage leaves were placed in petri dished lined with moist filter paper and 3rd instar larvae were added. Mortality was recorded 24, 72, and 120 hours after treatment.

| Compound | mortality at 300 ppm [1] [%] | mortality at 300 ppm [2] [%] | mortality at 300 ppm [3] [%] | further results |
| --- | --- | --- | --- | --- |
| CCN(C(=O)C(F)(F)F)c1nsc2cccc(OC(F)F)c12 [Compound example 26, N-(4-Difluoromethoxy-benzo[d]isothiazol-3-yl)-N-ethyl-2,2,2-trifluoro-acetamide] |  |  |  | melting point: 176 to 177 °C |
| CN(C(=O)c1ccc(Cl)nc1)c1nsc2cccc(OC(F)F)c12 [compound 82] | ≥ 89 | > 89 |  |  |
| O=C(Nc1nsc2cccc(Cl)c12)c1ccc(C(F)(F)F)nc1Cl [compound 115] |  |  | ≥ 89 |  |
| Cc1cccc2snc(NC(=O)c3cc(C(F)(F)F)nn3-c3ncccc3Cl)c12 [compound 113] |  |  |  | mortality at 300 ppm [4]: > 89%; mortality at 300 ppm [5]: > 89% |
| CN(C(=O)c1cnccc1C(F)(F)F)c1nsc2cccc(OC(F)F)c12 [compound 91] |  |  | ≥ 89 |  |
| O=C(Nc1nsc2cccc(Cl)c12)c1cc(Br)nn1-c1ncccc1Cl [compound 74] |  |  |  | mortality at 300 ppm [4]: > 89% |
| CN(C(=O)c1ccc(C(F)(F)F)nc1)c1nsc2cccc(Cl)c12 [compound 108] |  | > 89 | ≥ 89 |  |
| COc1cccc2snc(N=S(C)C)c12 [compound 125] | ≥ 89 |  | ≥ 89 |  |
| O=C(Nc1nsc2cccc(Cl)c12)c1cc(C(F)(F)F)nn1-c1ncccc1Cl [compound 75] |  |  |  | mortality at 300 ppm [4]: > 89% |
| CN(C(=O)c1cnccc1C(F)(F)F)c1nsc2cccc(Cl)c12 [compound 106] |  | > 89 | ≥ 89 |  |
| CCN(C(=O)c1cc(C(F)(F)F)nn1-c1ncccc1Cl)c1nsc2cccc(OC)c12 [compound 86] |  |  | ≥ 89 |  |
| CCCC(=O)N(CC)c1nsc2cccc(OC(F)F)c12 [compound 118] | ≥ 89 | > 89 | ≥ 89 |  |
| COCC(=O)N(C)c1nsc2cccc(OC(F)F)c12 [compound 76] | ≥ 89 | > 89 |  |  |
| CCN(C(=O)COC)c1nsc2cccc(OC(F)F)c12 [compound 77] | ≥ 89 | > 89 |  |  |
| O=C(Nc1nsc2cccc(OC(F)F)c12)c1cc(Br)nn1-c1ncccc1Cl [compound 89] |  |  | ≥ 89 |  |
| CC(=O)N(C)c1nsc2cccc(OC(F)F)c12 [compound 25] | ≥ 89 |  |  |  |
| CCN(C(=O)c1ccc(Cl)nc1)c1nsc2cccc(OC(F)F)c12 [compound 83] | ≥ 89 |  |  |  |
| CCN(C(=O)c1cc(C(F)(F)F)nn1-c1ncccc1Cl)c1nsc2cccc(OC(F)F)c12 [compound 81] |  | > 89 |  |  |
| COCC(=O)N(C)c1nsc2cccc(Cl)c12 [compound 87] | ≥ 89 | > 89 | ≥ 89 |  |
| CN(C(=O)c1cc(Br)nn1-c1ncccc1Cl)c1nsc2cccc(OC(F)F)c12 [compound 92] |  |  | ≥ 89 |  |
| COc1cccc2snc(N(C)C(=O)c3cnccc3C(F)(F)F)c12 [compound 105] |  | > 89 | ≥ 89 | mortality at 300 ppm [5]: > 89% |
| COc1cccc2snc(N(C)C(=O)c3cc(Br)nn3-c3ncccc3Cl)c12 [compound 94] |  | > 89 | ≥ 89 |  |
